This note sets out measurements from ChEMBL document CHEMBL1201862, “PubChem BioAssay data set” (2004).

In data set [1] the target is Endoplasmic reticulum aminopeptidase 1 (Homo sapiens, UniProt Q9NZ08). As to the kind of experiment: inhibition of human ERAP1 enzyme activity – biochemical, cherry-pick, set 2, plate reader, dose response (AID 743314).
Data set [2] deals with 1-phosphatidylinositol 4,5-bisphosphate phosphodiesterase gamma-1 (Homo sapiens, UniProt P19174). The data set can be described thus: Counterscreen for inhibitors of phospholipase C isozymes (PLC-B3): Fluorescence-based biochemical high throughput dose response assay to identify inhibitors of phospholipase C isozymes (PLC-gamma1). (A counterscreen serves to expose hits that act by an unwanted route or on another target.)

Data set [3] addresses 1-phosphatidylinositol 4,5-bisphosphate phosphodiesterase beta-3 (Homo sapiens, UniProt Q01970). As to the kind of experiment: Fluorescence-based biochemical high throughput dose response assay to identify inhibitors of phospholipase C isozymes (PLC-B3).
In data set [4] the target is Disintegrin and metalloproteinase domain-containing protein 17 (Homo sapiens, UniProt P78536). As to the kind of experiment: exosite inhibitors of ADAM17, dose response, biochemical (AID 743260).
Chain of Disintegrin and metalloproteinase domain-containing protein 17 (P78536 whole entry, the tested form may be a part): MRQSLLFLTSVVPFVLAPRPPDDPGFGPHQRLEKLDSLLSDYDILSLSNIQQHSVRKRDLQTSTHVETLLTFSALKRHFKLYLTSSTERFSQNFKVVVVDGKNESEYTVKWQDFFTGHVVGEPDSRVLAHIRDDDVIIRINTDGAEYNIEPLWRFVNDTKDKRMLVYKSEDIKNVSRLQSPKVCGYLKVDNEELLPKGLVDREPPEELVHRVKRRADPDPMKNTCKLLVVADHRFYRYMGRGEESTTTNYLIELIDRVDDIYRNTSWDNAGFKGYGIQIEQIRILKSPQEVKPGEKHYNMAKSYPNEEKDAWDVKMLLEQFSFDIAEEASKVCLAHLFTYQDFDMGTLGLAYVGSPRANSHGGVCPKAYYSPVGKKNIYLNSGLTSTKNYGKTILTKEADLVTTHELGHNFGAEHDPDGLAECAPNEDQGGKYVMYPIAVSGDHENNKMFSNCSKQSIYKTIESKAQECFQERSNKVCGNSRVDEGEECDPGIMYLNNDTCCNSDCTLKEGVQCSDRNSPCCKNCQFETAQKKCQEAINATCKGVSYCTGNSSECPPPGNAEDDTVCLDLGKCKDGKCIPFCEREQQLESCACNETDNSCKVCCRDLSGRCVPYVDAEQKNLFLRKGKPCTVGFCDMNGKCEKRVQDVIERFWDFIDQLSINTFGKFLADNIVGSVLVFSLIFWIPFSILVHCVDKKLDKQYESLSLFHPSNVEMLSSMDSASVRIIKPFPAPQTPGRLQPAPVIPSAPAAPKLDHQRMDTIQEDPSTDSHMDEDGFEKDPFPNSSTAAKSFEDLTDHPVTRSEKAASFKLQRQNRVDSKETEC
The nature of data set [5]: inhibition of ADAM10 peptide cleavage – biochemical, FRET peptide substrate, recombinant human ADAM10, selectivity assay for ADAM17 exosite inhibitor project, dose response (AID 743259).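 Also: ADAM10 enzyme cleaving a FRET peptide substrate.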
Data set [6] can be described thus: Luminescence-based cell-based high throughput dose response assay to identify activators of the DAF-12 from the parasite S. stercoralis (ssDAF-12). The data set is classed as functional.
In data set [7] the target is T1, Oxysterols receptor LXR-beta (Homo sapiens, UniProt P55055).
T1 sequence (P55055 whole entry): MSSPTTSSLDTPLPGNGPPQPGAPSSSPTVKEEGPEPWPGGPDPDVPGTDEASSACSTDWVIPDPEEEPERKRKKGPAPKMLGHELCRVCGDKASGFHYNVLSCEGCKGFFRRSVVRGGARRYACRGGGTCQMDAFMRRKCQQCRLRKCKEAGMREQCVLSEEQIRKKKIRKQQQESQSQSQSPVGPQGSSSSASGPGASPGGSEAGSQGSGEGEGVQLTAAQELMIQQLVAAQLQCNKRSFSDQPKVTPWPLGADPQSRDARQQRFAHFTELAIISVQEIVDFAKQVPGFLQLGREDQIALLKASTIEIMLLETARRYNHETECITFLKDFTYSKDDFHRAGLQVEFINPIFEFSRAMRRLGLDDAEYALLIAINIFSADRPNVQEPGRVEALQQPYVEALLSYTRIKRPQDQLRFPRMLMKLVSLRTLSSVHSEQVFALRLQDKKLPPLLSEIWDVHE
The data set can be described thus: LXR agonists, Gal4 luciferase reporter, dose response, counter-screen for ssDAF-12 agonist project, cell-based, luminescence, HEK293, S. stercoralis campaign (AID 720737). Conditions: read-out: IC50 (the source's name). Type of data set: functional. (In a reporter assay the amount or activity of a reporter protein is the signal.)

The target of data set [8] is T2, Sentrin-specific protease 7 (Homo sapiens, UniProt Q9BQF6).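 Also: Luminescence-based dose-response confirmation of ultra-high-throughput screening hits, measuring inhibition of SENP7.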
T2 sequence (Q9BQF6 whole entry): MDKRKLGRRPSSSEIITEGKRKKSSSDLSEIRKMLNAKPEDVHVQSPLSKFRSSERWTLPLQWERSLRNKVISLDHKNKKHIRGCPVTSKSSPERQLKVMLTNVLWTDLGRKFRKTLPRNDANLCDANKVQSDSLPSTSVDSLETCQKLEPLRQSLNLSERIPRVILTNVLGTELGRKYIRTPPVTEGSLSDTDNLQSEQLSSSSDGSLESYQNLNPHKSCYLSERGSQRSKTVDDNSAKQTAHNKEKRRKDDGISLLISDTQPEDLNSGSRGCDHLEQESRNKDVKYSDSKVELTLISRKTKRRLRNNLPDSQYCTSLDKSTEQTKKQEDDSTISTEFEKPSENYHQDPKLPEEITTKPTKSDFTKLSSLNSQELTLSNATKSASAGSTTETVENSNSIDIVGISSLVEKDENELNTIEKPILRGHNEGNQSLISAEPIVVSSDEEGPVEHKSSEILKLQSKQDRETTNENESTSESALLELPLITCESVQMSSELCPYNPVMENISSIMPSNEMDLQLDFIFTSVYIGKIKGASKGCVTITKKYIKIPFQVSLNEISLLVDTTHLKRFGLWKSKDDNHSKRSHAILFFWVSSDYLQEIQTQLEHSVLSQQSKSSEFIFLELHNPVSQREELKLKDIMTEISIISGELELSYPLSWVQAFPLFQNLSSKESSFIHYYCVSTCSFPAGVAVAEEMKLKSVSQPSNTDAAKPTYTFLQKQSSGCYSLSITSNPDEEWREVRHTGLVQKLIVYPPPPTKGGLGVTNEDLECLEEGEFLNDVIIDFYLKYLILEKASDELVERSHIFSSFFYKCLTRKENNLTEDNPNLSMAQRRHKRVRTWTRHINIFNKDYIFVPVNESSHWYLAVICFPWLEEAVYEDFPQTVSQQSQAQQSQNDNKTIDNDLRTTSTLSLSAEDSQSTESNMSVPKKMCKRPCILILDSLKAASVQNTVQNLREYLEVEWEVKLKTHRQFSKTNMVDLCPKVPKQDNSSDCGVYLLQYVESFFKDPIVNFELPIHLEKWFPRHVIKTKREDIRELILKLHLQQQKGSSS
Type of data set: functional.

The target of data set [9] is T1, Oxysterols receptor LXR-beta. Type of data set: functional, cell-based.
Data set [10] deals with T3, Sentrin-specific protease 8 (Homo sapiens, UniProt Q96LD8).
T3 sequence (Q96LD8 whole entry): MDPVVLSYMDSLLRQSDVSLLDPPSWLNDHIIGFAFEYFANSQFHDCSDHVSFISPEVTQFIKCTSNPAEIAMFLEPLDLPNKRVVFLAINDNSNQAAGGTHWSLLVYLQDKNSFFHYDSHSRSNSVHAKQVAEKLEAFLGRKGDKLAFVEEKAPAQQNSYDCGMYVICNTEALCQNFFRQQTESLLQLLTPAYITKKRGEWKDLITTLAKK
The data set is classed as functional.

The target of a further data set is Cytochrome P450 2D6 (Homo sapiens, UniProt P10635).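 Also: CYP2D6 member of a cytochrome P450 panel assay.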
Chain of Cytochrome P450 2D6 (P10635 whole entry): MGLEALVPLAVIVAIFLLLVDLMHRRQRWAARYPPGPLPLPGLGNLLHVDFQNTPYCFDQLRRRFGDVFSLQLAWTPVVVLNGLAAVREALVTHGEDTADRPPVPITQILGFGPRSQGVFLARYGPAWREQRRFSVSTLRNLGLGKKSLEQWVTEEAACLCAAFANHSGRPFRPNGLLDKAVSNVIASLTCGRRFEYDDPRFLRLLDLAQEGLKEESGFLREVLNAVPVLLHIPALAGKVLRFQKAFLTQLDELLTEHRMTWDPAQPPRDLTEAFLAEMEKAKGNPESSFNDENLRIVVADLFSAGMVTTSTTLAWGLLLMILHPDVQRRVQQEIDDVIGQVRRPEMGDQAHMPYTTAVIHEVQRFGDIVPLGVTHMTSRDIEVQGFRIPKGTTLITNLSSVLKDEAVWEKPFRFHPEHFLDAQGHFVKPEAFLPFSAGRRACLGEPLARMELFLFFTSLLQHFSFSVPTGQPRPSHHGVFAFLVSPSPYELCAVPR
The target of the next data set is Cytochrome P450 2C9 (Homo sapiens, UniProt P11712).
Chain of Cytochrome P450 2C9 (P11712 whole entry): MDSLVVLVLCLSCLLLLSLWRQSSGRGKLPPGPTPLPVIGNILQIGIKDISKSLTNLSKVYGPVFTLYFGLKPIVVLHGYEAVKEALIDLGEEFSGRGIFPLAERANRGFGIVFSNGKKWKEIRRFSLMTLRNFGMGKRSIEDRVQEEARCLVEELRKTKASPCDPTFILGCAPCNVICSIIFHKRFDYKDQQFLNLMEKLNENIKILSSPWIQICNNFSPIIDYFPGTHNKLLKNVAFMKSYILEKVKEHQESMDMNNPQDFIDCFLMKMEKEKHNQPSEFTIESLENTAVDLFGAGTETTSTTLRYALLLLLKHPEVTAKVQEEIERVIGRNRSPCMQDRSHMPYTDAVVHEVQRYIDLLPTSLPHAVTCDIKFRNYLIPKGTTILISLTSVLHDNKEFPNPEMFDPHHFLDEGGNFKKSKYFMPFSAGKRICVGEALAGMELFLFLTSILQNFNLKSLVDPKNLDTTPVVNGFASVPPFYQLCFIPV
Another data set has as its target T4, Caspase-3 (Homo sapiens, UniProt P42574).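 Also: Dose-response selectivity test against caspase-3 for candidate inhibitors of sentrin-specific proteases (SENPs).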
T4 sequence (P42574 whole entry): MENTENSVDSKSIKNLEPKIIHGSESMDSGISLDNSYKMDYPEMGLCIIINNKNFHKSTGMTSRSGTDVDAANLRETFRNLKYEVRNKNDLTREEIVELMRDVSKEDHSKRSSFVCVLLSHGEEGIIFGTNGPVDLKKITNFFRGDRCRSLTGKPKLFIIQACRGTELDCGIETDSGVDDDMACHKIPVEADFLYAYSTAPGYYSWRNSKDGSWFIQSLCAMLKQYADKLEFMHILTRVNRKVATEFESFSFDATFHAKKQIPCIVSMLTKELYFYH
The data set is classed as functional.

Data set [11] has as its target T5, Sentrin-specific protease 6 (Homo sapiens, UniProt Q9GZR1).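 Also: Luminescence-based dose-response confirmatory assay of SENP6 inhibition, following up an ultra-high-throughput screen.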
T5 sequence (Q9GZR1 whole entry): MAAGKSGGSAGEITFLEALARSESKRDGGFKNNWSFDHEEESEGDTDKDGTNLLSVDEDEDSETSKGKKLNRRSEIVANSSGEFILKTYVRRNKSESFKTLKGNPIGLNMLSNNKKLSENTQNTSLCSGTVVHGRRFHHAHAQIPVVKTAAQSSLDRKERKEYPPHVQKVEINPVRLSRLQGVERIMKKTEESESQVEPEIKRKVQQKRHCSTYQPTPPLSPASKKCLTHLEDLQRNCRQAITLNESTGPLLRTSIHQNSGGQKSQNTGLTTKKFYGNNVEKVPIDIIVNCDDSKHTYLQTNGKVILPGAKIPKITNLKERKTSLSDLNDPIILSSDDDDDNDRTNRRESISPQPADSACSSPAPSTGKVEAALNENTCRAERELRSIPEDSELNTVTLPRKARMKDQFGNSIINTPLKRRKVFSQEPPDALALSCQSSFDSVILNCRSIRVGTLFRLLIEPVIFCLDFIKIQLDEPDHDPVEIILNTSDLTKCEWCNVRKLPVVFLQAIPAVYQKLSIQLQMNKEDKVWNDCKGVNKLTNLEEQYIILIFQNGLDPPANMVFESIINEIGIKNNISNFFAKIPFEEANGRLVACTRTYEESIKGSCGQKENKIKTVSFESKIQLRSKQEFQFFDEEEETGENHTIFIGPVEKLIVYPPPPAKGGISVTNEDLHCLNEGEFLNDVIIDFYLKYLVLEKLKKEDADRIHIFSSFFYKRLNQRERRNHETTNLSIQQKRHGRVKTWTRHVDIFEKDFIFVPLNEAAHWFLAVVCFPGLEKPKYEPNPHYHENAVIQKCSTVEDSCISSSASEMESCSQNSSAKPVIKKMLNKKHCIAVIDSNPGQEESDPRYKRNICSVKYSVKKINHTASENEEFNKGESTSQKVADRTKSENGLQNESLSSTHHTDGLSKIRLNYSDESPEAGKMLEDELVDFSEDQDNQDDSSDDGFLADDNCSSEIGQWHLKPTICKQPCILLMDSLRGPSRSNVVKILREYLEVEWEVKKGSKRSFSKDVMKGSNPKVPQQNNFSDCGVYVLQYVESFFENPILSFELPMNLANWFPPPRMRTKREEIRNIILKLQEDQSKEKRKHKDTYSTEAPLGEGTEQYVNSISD
The data set is classed as functional.

Active and inactive are the calls of the source.

The term AC50 denotes the concentration giving half of the maximal activity seen. One may read the IC50 as the midpoint of a concentration-inhibition curve.

Chain of Endoplasmic reticulum aminopeptidase 1 (Q9NZ08 whole entry): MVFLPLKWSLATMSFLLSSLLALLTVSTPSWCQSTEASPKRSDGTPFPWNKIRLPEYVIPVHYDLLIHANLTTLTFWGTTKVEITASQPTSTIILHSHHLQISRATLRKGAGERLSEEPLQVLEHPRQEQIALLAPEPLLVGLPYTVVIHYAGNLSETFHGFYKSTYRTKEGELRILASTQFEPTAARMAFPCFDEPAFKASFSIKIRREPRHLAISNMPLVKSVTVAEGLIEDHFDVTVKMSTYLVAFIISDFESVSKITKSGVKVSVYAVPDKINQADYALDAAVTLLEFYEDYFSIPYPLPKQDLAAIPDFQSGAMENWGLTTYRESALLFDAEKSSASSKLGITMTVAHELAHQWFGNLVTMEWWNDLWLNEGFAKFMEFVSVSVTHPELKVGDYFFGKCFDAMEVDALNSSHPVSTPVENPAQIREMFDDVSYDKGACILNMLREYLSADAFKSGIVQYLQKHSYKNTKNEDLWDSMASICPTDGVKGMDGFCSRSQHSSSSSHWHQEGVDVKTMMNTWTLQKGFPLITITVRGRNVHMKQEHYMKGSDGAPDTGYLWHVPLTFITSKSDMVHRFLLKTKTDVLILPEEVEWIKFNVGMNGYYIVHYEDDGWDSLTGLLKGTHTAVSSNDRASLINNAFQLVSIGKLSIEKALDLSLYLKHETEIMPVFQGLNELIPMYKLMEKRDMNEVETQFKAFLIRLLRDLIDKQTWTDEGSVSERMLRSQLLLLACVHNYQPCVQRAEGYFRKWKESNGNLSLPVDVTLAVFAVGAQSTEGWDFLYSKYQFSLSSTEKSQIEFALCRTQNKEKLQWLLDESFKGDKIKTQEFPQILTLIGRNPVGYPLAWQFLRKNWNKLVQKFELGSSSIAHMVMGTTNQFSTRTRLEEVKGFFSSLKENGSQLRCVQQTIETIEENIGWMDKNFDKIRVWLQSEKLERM
Chain of 1-phosphatidylinositol 4,5-bisphosphate phosphodiesterase beta-3 (Q01970 whole entry, the tested form may be a part): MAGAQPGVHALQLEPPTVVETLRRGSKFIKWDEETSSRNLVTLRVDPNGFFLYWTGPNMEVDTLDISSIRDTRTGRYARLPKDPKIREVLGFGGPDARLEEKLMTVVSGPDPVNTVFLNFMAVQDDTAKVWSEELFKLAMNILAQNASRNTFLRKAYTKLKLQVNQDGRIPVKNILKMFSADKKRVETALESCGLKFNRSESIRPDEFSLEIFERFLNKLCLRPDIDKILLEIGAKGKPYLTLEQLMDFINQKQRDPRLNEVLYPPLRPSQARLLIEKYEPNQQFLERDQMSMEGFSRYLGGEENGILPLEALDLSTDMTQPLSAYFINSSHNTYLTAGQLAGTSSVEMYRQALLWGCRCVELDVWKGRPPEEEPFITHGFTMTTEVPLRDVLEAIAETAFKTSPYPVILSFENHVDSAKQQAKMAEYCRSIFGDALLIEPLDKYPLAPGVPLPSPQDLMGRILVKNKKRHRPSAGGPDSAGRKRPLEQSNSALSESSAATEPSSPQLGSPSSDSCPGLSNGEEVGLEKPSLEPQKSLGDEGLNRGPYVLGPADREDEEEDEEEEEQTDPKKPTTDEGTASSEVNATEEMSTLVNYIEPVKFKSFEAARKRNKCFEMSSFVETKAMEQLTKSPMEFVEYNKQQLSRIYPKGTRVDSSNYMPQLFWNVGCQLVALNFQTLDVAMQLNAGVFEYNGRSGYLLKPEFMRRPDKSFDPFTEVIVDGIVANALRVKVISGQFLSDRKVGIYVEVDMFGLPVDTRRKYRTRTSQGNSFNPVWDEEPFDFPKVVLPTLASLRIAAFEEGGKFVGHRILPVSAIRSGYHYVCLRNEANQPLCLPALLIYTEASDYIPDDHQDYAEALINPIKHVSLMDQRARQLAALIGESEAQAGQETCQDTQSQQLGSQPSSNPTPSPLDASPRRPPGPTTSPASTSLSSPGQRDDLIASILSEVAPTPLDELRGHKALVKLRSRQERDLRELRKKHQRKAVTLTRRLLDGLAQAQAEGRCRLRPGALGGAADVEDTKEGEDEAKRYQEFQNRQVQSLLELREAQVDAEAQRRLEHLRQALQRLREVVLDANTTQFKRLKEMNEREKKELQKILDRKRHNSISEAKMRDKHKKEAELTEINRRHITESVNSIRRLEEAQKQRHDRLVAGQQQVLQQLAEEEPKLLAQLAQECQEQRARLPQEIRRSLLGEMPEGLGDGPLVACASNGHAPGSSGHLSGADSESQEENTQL

On to `Cc1cc(=O)oc2c(CN3CCCC3)c(O)ccc12`, for which, in data set [1], the AC50 is 11.8 µM (active).

Consider `COc1ccnc2c1c(=O)n(Cc1ccc(Cl)cc1Cl)c(=O)n2C`, for which the IC50 in [2] and in [3] was > 122 µM (inactive) throughout.

Turning to `Cc1ccc(C2=NS(=O)(=O)N(C)C(C(=O)Nc3ccc4c(c3)OCO4)=C2)cc1`, the figures for the IC50 in data set [4] and in [5] were > 69.5 µM (inactive) and 19 µM (inactive), respectively.

Consider `CCOc1ccccc1-n1nnnc1SCc1nc2ccccc2s1`, for which, in [6], the IC50 is > 67.5 µM (inactive). In addition, in data set [7], the EC50 was > 67.5 µM (inactive).

As for `O=[N+]([O-])c1cccnc1NCCNc1ncc(C(F)(F)F)cc1Cl`, the half-maximal inhibitory concentration (IC50) is 6.52 µM (active) in [8], 23.3 µM (active) in data set [10], 28.7 µM (active) at Caspase-3 and 19.1 µM (active) in data set [11]. For the same compound, the EC50 in [9] is > 67.5 µM (inactive). For the same compound, the AC50 on Cytochrome P450 2D6 is 14.1 µM (inconclusive); at Cytochrome P450 2C9, “inconclusive”.
